This assay deals with mammary estrogen-regulated genes (lactoferrin and progesterone receptor). Description: Expression of estrogen-regulated genes in mammary tissue of ovariectomized FVB/n mice. In kind it is in vivo, mouse. The following applies: FVB/n OVX mice, n=4, data not shown; versus control (vehicle) and melatonin alone. From the text: Previous studies with melatonin or tamoxifen alone were done in MMTV/neu mice. MMTV/neu mice spontaneously develop HER2/neu mammary cancer beginning at 5 months of […] and have a maximal incidence of >90% after 14 months of age. In this mouse model, tamoxifen and melatonin alone can influence mammary tumor development, growth and/or metastatic progression.

SMILES strings stand for the structures.

This is an account of results in patent US8785501B2 (Duquesne University of the Holy Spirit, priority 2009, dated 2014).

With `CC/C(=C(\c1ccccc1)c1ccc(OCCN(C)C)cc1)c1ccccc1` [tamoxifen], the “progesterone receptor (PR) RNA levels in mammary tissue” value was “significantly different than the control”.
